Test system: Staphylococcus aureus
Assay: Replicate-well microdilution growth test (32 replicates per antibiotic concentration), growth ranked by viability in culture and direct epifluorescence
Type: cell-based
Conditions: for growth response of replicate wells: 5 hours at 37° C.
Text: Format: In general terms the entire series of tests followed the methods for use of microdilution plates. Each of the eight antibiotic concentrations was represented by 32 replicate wells, thus amounting to 8×32[256] test wells in a three plate array.
Organisms: Two cultures of Staphylococcus aureus, with one isolated from plates containing penicillin supplemented agar to provide cells of known β lactamase activity.
Inoculum: A target level of 10^2 cells/wells was selected to test an adequate number of organisms within each treatment. In the examples 2-4 the aim was to include an increasing proportion of resistant/β lactamase positive cells. Preparation by dilutions at these levels will undoubtedly be prone to errors.
Incubation: Sealed plates incubated for 5 hours at 37° C. [previously shown to provide significant growth]. At the end of incubation well contents […] were transferred to 200 μl using individual sterile pipette tips [i.e. one/well].
A 100 μl sample of diluted well contents was plated and spread on culture plates. The growth, corresponding to the situation at 5 hours, was assessed after incubation of the culture plates overnight.
ii. Direct Epifluorescence Method
A second 100 μl sample was filtered through a commercially available 0.2μ nuclepore membrane. This non-fluorescent, black filter was supported on a 5.0μcellulosic membrane filter. Discrete 3.0 mm diameter filter zones were created by attaching pre-punched black adhesive tape to the membranes. After filtration the zones were stained with 0.01% w/v Acriflavine™ in phosphate buffer at pH 7.2 [filtered immediately before use]. Direct observation, using an epifluorescence microscope resembles the DEFT method described by Pettifer G L Rodrigues U K [1982] J.Appl.Bact. 53:323-329. Using a large numerical aperture×45 objective it is relatively simple to rank the estimated density of growth.
The viability test depicts growth responses in terms of organisms recovered and subsequently able to produce colonies on a secondary culture plate. Direct epifluorescence/filtration does constitute rapid detection but in this manual form is both cumbersome and labour intensive. Within these constraints both methods served to assign rankings to the growth response of every well. The two methods were adequate to indicate the presence of growth.

## Penicillin
Example 1 (no resistant cells added), antibiotic levels higher than 0.015 μg/ml
  growth response of replicate wells: no evidence of growth
Examples 1-4, antibiotic concentration 0.004 μg/ml, 32 replicate wells
  growth response of replicate wells: all 32 replicate wells exhibit continued growth
Examples 1-4, antibiotic concentration 0.015 μg/ml
  growth response of replicate wells: the population in some wells exhibits sensitivity
Examples 2, 3 and 4 (inoculum with increasing proportion of resistant/β lactamase positive cells)
  growth response of replicate wells: an appreciable number of wells show low grade growth
Examples 2, 3 and 4, antibiotic concentration 0.250 μg/ml
  sensitivity of resistant sub-populations in some wells: insensitive
